Laboratory results from patent US5344850A, “Topical composition for preventing or treating acne vulgaris” (Takasago International Corporation, priority 1992, dated 1994).
In brackets after ≈: the same amount, converted by molar mass. Where two headings read alike, the source gives them in different places.

How the values were obtained:
Propionibacterium acnes [1] = assay: Minimum growth inhibitory concentration (MIC) on Propionibacterium acnes (Test Example 1); type: cell-based, Propionibacterium acnes (ATCC 6919); settings: for MIC: Cutibacterium acnes; for Antibacterial activity (in words): inhibition of proliferation of Propionibacterium acnes, as compared with eugenol
Method: The minimum growth inhibitory concentrations (MIC) of the compounds (2) and (3) as obtained in Production Examples 1 and 2 on Propionibacterium acnes were determined in the following manner.
59.0 g of a GAM (Gifu anaerobic medium) bouillon medium (manufactured by Nissui Pharmaceutical Co., Ltd.) was dissolved in 1 liter of purified water and a test compound was added thereto so as to give a concentration of 100 μg/ml. A serial 2-fold dilution of the mixture thus obtained was made with the medium followed by sterilization. 10 ml portions of the mixture were pipetted into test tubes and each inoculated with 0.1 ml of Propionibacterium acnes (ATCC 6919) which had been pre-incubated to give a cell concentration of 1×10^8 cells/mi. After stationary incubation under anaerobic conditions for 48 hours, the turbidity was measured at a wavelength of 660 nm. […] For comparison, MIC of eugenol, which had been known as having a relatively strong antibacterial activity, on Propionibacterium acnes was determined.

[2] = system: Staphylococcus epidermidis, Pseudomonas aeruginosa, Corynebacterium species, Aerobacter kleps and Candida albicans; settings: in words; cited from earlier work
Propionibacterium acnes [3] = settings: cited from earlier work
[4] = Propionibacterium acnes, GAM bouillon medium, anaerobic, 48 hours, turbidity at 660 nm, read-out: MIC

| SMILES | Antibacterial activity (in words) (Propionibacterium acnes [1]) | MIC (Propionibacterium acnes [1]; [4]) [µg/mL] | other results |
| --- | --- | --- | --- |
| CC(C)CCCC(C)CCCC(C)CCCC(C)O (centres unmarked) [compound (2), 6,10,14-trimethylpentadecan-2-ol] | intense antibacterial activity | – | MIC (Propionibacterium acnes [1]; 48 h): 3.13 µg/mL (≈ 11.6 µM) |
| CC(C)=CCCC(C)=CCCC(C)=CCCC(C)O (centres unmarked) [compound (3), 6,10,14-trimethyl-5,9,13-pentadecatrien-2-ol] | intense antibacterial activity | 1.56 (≈ 5.9 µM) | – |
| C=CCc1ccc(O)c(OC)c1 [eugenol] | – | 50 (≈ 304 µM) | – |
| CC(C)=CCCC(C)=CCCC(C)=CCO [farnesol, 3,7,11-trimethyldodeca-2,6,10-trien-1-ol] | – | – | growth inhibitory effect [2]: exhibits a growth inhibitory effect; antibacterial activity, used alone (Propionibacterium acnes [3]; farnesol used alone): little activity; antibacterial activity, used in combination (Propionibacterium acnes [3]; in combination with phenyl hydroxyalkyl ether and glycerol monolaurate): exhibits an antibacterial activity |
